Experiments:
Assay type in all cases: in vivo, Male Sprague-Dawley (SD) rats
CUMS rats [1] = assay: Sucrose preference test (SPT) in CUMS rats; conditions: after five weeks of administration by gastric gavage, HFPE, HFFE 25 mg/kg, fluoxetine 10 mg/kg, model group 64.44%
Protocol: (§1) The Animal Ethics Committee of Shenyang Pharmaceutical University has approved all animal testing (no. SYPU-IACUC-S2021-03-03-202). Male Sprague-Dawley (SD) rats weighing 180–200 g were supplied by Central Animal House of Shenyang Pharmaceutical University (Shenyang, China). […] They were also provided water and a regular food. Before the actual trials start, the rats should acclimate to their new environment for seven days.
(§2) A baseline test was conducted as described below before grouping. Rats were divided into five groups of 10 depending on their weight and sucrose preference. The model group, fluoxetine (10 mg/kg) group, HFPE (25 mg/kg) group, and HFFE (25 mg/kg) group were the four treatment groups using CUMS procedures. An untouchable control group was used. Based on what had been reported in the pharmacological literature the HFPE and HFFE dosages were selected. Two hours before to the daily CUMS procedure and behavioral testing, the rats received the appropriate solutions. […]
(§3) Body weights were recorded every week. […]
The SPT is used to evaluate rodent behavior associated with a human clinical symptom of depression by evaluating the capacity to seek pleasure. […] After that, the amount of liquids consumed was recorded. […]

CUMS rats [2] = assay: Open-field test (OFT) in CUMS rats; conditions: 5 min test, HFPE, HFFE 25 mg/kg, fluoxetine 10 mg/kg, compared with model group
Protocol: as §1, §2, §3
To assess the effects of HFPE and HFFE on exploratory behavior of rats administered CUMS, OFT carried out in the same manner as literature. Each rat was placed in its own square in the center of a black box that measured 100 cm × 100 cm × 40 cm. […] Both the crossing score and the rearing score for each animal were recorded. […]

IL-1β = IL-1β level in hippocampus of CUMS rats, ELISA; conditions: after 5 weeks of therapy, HFPE, HFFE 25 mg/kg, fluoxetine 10 mg/kg
Protocol: as §1, §2
(§4) The serum and hippocampal tissue of rats were taken. […] The optical density value was calculated after the reaction by setting the microtiter plate at 450 nm. The amount of CORT in the serum and the amounts of IL-6, IL-1β, and TNF-α in the hippocampus tissue were calculated using the standard curve.

TNF-α = TNF-α level in hippocampus of CUMS rats, ELISA; conditions: after 5 weeks of therapy, HFPE, HFFE 25 mg/kg, fluoxetine 10 mg/kg
Protocol: as §1, §2, §4

CUMS rats [3] = assay: Forced swimming test (FST) in CUMS rats; conditions: HFPE, HFFE 25 mg/kg, fluoxetine 10 mg/kg, compared with CUMS model group
Protocol: as §1
as §2, with “solutions. All of the medications were administered through gastric gavage at a volume of 3 mL/kg of body weight and dissolved in sodium carboxymethylcellulose (CMC-Na) at a concentration of 0.3%.” for “solutions.”
as §3
The FST protocol was carried out as described in previous literature. […] The time the rat’s immobility duration in the last five minutes of their six-minute swim in the bucket was recorded. […]

[4] = Body weight growth rate of CUMS rats; conditions: 5 weeks, HFPE, HFFE 25 mg/kg, fluoxetine 10 mg/kg, gastric gavage
Protocol: as §1
as §2, with “solutions. All of the medications were administered through gastric gavage at a volume of 3 mL/kg of body weight and dissolved in sodium carboxymethylcellulose (CMC-Na) at a concentration of 0.3%. Days 76–79, 80, and 81 after the final dosage of the medication, respectively, saw the completion of the SPT, OFT, and FST.” for “solutions.”
as §3

IL-6 = IL-6 level in hippocampus of CUMS rats, ELISA; conditions: after 5 weeks of therapy, HFPE, HFFE 25 mg/kg, fluoxetine 10 mg/kg
Protocol: as §1, §2, §4

SMILES: CNCCC(Oc1ccc(C(F)(F)F)cc1)c1ccccc1 (stereo not shown) [fluoxetine]
- sucrose preference (CUMS rats [1]): 82.40%
- OFT rearing score (exploratory activity) (CUMS rats [2]): improved the rearing score
- IL-1β level in hippocampus (IL-1β): obviously reduced
- TNF-α level in hippocampus (TNF-α): obviously reduced
- FST immobility time (CUMS rats [3]): reduced immobility
- growth rate of body weight [4]: alleviate the reduction in body weight
- IL-6 level in hippocampus (IL-6): obviously reduced

Source: publication PMC9502271, “An Investigation of the Anti-Depressive Properties of Phenylpropanoids and Flavonoids in Hemerocallis citrina Baroni” (Molecules, 2022)
